{
  "source": "paper PMC7979765",
  "about": "“trans-Translation inhibitors bind to a novel site on the ribosome and clear Neisseria gonorrhoeae in vivo” (Nature Communications, 2021)",
  "key": {"[1]": {"assay": "Serum protein binding, rat", "format": "in vitro ADME", "conditions": "Eurofins; for fraction unbound: rat, serum, read-out: Serum binding (% bound) Rat (converted)", "description": "(§1) Serum protein binding was determined using an equilibrium dialysis method as described. The amount of compound in each chamber (buffer and serum) was measured using methods for reverse-phase liquid chromatography/mass spectroscopy methods that were customized for each compound."}, "[2]": {"assay": "Serum protein binding, dog", "format": "in vitro ADME", "description": "as §1"}, "[3]": {"assay": "Serum protein binding, human", "format": "in vitro ADME", "conditions": "read-out: Serum binding (% bound) Human (converted)", "description": "as §1"}, "Moraxella catarrhalis": {"system": "Moraxella catarrhalis", "assay": "MIC, microbroth dilution", "format": "cell-based"}, "Legionella pneumophila": {"system": "Legionella pneumophila", "assay": "microbe, parasite or virus in culture", "format": "cell-based"}, "CYP450 enzymes": {"system": "CYP450 enzymes", "assay": "CYP450 inhibition assays (panel statement)", "format": "in vitro ADME, human", "conditions": "5 concentrations from 30 nM to 100 μM", "description": "(§2) Several in vitro selectivity assays were performed at Eurofins Discovery Services using established methods and controls that behaved as expected (Supplementary Tables 5 and 6). […] For receptor panel profiling, MBX-4132 was evaluated at 10 μM and activity of >50% (agonist or antagonist; note that negative % inhibition indicates agonism) was scored as active."}, "Cycloogenase COX-1": {"target": "T1, Cycloogenase COX-1 (Homo sapiens, UniProt P23219)", "T1 construct": "Eurofins Discovery Services (contract assay) 116030", "T1 sequence (P23219 24-599)": "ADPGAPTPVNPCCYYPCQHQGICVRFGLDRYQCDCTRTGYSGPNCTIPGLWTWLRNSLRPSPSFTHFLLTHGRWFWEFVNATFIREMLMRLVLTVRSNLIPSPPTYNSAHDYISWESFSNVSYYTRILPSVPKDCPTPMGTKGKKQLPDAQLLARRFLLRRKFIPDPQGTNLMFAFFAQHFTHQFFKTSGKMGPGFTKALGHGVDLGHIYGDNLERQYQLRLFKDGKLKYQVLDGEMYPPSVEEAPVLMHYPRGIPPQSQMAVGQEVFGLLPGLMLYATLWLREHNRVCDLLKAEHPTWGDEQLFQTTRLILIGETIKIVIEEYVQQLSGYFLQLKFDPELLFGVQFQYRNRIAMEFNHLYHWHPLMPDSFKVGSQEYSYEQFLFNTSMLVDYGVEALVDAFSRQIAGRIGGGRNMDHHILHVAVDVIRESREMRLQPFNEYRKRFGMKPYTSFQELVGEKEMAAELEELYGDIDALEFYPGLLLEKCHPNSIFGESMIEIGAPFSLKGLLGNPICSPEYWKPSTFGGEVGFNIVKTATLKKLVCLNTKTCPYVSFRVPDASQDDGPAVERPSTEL", "assay": "Receptor Profiling 116030", "format": "biochemical", "description": "as §2"}, "Phosphodiesterase PDE3A": {"target": "T2, Phosphodiesterase PDE3A (Homo sapiens, UniProt Q14432)", "T2 construct": "Eurofins Discovery Services (contract assay) 152300", "T2 sequence (Q14432 whole entry)": "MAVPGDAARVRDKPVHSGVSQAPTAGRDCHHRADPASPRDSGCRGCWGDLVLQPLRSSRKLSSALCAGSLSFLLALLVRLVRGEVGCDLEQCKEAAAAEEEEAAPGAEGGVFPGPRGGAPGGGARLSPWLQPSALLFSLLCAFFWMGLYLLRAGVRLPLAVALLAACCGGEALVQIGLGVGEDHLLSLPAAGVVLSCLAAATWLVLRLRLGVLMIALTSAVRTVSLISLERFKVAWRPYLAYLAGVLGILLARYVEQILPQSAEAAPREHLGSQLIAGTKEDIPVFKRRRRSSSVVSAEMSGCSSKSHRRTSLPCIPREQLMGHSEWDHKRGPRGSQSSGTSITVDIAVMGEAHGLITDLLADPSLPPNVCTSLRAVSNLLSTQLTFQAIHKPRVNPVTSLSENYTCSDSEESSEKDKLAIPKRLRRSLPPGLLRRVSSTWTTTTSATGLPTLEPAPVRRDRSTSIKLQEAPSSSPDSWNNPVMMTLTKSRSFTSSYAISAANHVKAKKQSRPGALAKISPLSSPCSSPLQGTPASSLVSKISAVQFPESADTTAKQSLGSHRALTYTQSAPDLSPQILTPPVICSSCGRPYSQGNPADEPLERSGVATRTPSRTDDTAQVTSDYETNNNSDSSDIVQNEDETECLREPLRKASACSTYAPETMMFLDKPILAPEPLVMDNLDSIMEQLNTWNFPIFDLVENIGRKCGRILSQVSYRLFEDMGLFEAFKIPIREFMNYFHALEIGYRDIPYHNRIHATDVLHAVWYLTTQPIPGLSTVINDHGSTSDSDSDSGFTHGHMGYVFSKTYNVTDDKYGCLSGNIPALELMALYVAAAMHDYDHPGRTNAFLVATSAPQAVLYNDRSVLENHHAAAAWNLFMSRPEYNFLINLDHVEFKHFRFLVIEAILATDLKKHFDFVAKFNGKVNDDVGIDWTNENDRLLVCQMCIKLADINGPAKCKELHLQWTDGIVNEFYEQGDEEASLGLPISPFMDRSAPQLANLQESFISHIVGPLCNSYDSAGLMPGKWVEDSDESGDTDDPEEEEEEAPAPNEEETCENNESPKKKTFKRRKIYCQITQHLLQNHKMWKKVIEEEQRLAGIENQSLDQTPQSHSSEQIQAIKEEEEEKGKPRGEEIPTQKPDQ", "assay": "Receptor Profiling 152300", "format": "biochemical", "description": "as §2"}, "Cannabinoid CB2": {"target": "T3, Cannabinoid CB2 (Homo sapiens, UniProt P34972)", "T3 construct": "purchased Eurofins Discovery Services (Panlabs safety panel)", "T3 sequence (P34972 whole entry)": "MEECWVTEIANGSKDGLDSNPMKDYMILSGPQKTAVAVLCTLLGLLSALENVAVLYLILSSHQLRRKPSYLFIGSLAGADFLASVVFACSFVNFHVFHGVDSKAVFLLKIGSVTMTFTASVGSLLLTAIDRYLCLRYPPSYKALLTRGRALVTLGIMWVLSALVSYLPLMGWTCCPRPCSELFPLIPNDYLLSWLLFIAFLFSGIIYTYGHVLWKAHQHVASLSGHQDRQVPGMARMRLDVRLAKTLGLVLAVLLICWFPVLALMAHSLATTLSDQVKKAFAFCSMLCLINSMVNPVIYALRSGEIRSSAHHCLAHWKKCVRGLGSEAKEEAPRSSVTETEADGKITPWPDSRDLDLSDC", "assay": "Receptor Profiling 217100", "format": "binding", "description": "as §2"}, "Endothelin ETA": {"target": "T4, Endothelin ETA (Homo sapiens, UniProt P25101)", "T4 construct": "purchased Eurofins Discovery Services (Panlabs safety panel)", "T4 sequence (P25101 21-427)": "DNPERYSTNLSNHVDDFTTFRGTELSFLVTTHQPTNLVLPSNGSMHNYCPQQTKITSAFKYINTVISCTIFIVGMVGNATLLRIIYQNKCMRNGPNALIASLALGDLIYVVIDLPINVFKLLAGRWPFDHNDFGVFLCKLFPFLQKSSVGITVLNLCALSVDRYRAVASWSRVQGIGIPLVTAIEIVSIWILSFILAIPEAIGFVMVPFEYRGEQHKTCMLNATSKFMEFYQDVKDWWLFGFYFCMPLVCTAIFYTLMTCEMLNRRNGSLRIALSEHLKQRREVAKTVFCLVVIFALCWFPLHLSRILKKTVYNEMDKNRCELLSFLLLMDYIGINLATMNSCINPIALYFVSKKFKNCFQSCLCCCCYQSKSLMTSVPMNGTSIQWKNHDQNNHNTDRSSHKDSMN", "assay": "Receptor Profiling 224010", "format": "binding", "description": "as §2"}, "Histamine H2": {"target": "T5, Histamine H2 (Homo sapiens, UniProt P25021)", "T5 construct": "purchased Eurofins Discovery Services (Panlabs safety panel)", "T5 sequence (P25021 whole entry)": "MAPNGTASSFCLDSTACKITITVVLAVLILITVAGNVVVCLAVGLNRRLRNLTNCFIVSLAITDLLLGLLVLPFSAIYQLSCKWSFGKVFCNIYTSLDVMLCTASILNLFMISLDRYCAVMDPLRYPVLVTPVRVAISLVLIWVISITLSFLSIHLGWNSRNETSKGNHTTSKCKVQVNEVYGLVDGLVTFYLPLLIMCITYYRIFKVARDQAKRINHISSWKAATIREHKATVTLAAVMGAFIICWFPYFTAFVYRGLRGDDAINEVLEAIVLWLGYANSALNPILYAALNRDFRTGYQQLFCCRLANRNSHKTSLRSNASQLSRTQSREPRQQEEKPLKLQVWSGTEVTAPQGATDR", "assay": "Receptor Profiling 239710", "format": "binding", "description": "as §2"}, "[4]": {"target": "T6, Nicotinic Acetylcholine α4β2, Cytisine (Homo sapiens, UniProt P17787+P43681)", "T6 construct": "purchased Eurofins Discovery Services (Panlabs safety panel)", "T6 sequence (P43681 29-627 limits assumed)": "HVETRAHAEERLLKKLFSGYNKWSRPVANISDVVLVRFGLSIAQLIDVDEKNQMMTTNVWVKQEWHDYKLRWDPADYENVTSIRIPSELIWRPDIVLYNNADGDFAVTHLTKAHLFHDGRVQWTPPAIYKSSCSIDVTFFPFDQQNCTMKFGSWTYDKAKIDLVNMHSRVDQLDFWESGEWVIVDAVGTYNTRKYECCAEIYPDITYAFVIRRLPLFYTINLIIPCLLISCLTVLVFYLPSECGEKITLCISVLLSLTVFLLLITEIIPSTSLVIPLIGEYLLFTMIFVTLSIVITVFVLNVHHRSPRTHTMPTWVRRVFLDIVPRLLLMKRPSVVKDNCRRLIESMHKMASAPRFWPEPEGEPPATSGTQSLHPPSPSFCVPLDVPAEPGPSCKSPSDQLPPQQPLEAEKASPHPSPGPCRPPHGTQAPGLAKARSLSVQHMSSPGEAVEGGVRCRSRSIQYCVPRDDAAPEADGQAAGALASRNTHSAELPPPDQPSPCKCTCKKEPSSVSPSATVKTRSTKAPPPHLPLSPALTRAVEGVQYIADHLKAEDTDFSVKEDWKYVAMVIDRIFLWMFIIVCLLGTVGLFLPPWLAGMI", "T6 sequence (P17787 26-502)": "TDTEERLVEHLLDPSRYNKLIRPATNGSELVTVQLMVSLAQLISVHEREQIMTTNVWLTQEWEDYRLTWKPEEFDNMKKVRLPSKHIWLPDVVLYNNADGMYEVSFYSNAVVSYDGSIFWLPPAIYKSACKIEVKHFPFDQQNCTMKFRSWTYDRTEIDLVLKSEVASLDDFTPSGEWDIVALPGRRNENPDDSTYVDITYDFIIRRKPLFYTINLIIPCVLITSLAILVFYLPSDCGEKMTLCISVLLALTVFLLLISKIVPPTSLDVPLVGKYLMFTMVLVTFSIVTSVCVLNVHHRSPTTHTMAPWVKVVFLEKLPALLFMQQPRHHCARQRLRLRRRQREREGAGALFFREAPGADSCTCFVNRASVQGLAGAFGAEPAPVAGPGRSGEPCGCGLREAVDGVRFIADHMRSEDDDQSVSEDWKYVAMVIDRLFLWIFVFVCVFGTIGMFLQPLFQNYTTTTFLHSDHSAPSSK", "assay": "Receptor Profiling 299031", "format": "binding", "description": "as §2"}, "Opiate Mu (OP3, MOP)": {"target": "T7, Opiate Mu (OP3, MOP) (Homo sapiens, UniProt P35372)", "T7 construct": "purchased Eurofins Discovery Services (Panlabs safety panel)", "T7 sequence (P35372 whole entry)": "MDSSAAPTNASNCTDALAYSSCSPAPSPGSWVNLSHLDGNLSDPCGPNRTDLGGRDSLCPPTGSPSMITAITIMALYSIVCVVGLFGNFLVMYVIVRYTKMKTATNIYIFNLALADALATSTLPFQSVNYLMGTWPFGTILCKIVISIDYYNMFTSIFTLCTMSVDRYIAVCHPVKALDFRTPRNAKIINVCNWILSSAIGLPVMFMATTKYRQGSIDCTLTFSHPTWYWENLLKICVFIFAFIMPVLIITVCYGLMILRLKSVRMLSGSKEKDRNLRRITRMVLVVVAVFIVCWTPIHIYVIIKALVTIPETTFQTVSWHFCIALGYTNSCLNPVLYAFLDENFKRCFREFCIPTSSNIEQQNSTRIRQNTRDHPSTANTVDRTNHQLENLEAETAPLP", "assay": "Receptor Profiling 260410", "format": "binding", "description": "as §2"}, "[5]": {"target": "T8, Transporter, Dopamine (DAT) (Homo sapiens, UniProt Q01959)", "T8 construct": "Eurofins Discovery Services (contract assay) 220320", "T8 sequence (Q01959 whole entry)": "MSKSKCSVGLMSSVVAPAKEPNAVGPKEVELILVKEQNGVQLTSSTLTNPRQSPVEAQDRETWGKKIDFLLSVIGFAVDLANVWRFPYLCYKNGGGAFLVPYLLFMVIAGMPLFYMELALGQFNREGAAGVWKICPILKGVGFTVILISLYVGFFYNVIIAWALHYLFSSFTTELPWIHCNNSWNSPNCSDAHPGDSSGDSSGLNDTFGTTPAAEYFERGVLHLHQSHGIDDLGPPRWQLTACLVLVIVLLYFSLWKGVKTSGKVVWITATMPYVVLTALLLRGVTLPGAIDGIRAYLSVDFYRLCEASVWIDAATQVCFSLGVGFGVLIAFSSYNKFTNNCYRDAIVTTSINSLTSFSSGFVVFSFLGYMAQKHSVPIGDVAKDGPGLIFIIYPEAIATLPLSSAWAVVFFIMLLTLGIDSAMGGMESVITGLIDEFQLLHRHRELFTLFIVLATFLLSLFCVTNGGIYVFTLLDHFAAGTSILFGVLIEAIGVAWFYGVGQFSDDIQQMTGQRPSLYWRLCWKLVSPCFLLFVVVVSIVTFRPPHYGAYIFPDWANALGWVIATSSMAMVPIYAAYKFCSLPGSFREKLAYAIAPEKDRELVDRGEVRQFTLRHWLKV", "assay": "Receptor Profiling 220320", "format": "binding", "description": "as §2"}, "[6]": {"system": "N. gonorrhoeae strain H041", "assay": "In vivo efficacy in the gonorrhea mouse model", "conditions": "for mouse cfu: individual mice, 2.00E+01 = no CFU/mL recovered, limit of detection"}},
  "note": "Several values for one entry are separate records, joined by “and”; a condition that tells them apart may be missing. Equal entries are not always repeated. Where two headings read alike, the source gives them in different places.",
  "data": [
    {"smiles": "O=C(Nc1nnc(-c2ccc(F)cc2)o1)N1CCc2ccccc2C1", "note": "[MBX-4132]", "values": [
      {"measurement": "Serum binding (% bound) Rat", "setting": "[1]; Replicate 1/2", "value": "99.9% and 85.2%"},
      {"measurement": "fraction unbound", "setting": "[1]; Reported value", "value": 0.07},
      {"measurement": "fraction unbound", "setting": "[1]; Average Value", "value": 0.074},
      {"measurement": "fraction unbound", "setting": "[2]; Average Value, Eurofins, read-out: Serum binding (% bound) Dog (converted)", "value": 0.048},
      {"measurement": "fraction unbound", "setting": "[2]; Replicate 1/2, Eurofins, read-out: Serum binding (% bound) Dog (converted)", "value": "0.095 and 0.002"},
      {"measurement": "fraction unbound", "setting": "[2]; Reported value, Eurofins, read-out: Serum binding (% bound) Dog (converted)", "value": 0.048},
      {"measurement": "fraction unbound", "setting": "[2]; read-out: Serum Binding (% bound) Dog (converted)", "value": 0.048},
      {"measurement": "fraction unbound", "setting": "[3]; Average Value, Eurofins", "value": 0.009},
      {"measurement": "fraction unbound", "setting": "[3]; Replicate 1/2, Eurofins", "value": "0.017 and 0.002"},
      {"measurement": "fraction unbound", "setting": "[3]; Reported value, Eurofins", "value": 0.01},
      {"measurement": "MIC", "setting": "Moraxella catarrhalis; Moraxella catarrhalis 8716, replicates", "value": 0.0332, "unit": "µg/mL"},
      {"measurement": "MIC", "setting": "Moraxella catarrhalis; Moraxella catarrhalis, Moraxella catarrhalis 8716, replicates, read-out: MIC", "value": 0.0332, "unit": "µg/mL"},
      {"measurement": "MIC", "setting": "Moraxella catarrhalis; Moraxella catarrhalis, strain 8716, read-out: MIC", "value": 0.04, "unit": "µg/mL"},
      {"measurement": "MIC", "setting": "Legionella pneumophila; Legionella pneumophila ATCC 33153, replicates", "value": 8.50, "unit": "µg/mL"},
      {"measurement": "MIC", "setting": "Legionella pneumophila; Legionella pneumophila, ATCC33153", "value": 8.5, "unit": "µg/mL"},
      {"measurement": "CYP450 inhibitory activity (in words)", "setting": "CYP450 enzymes", "value": "no inhibitory activity >50%"},
      {"measurement": "inhibition at 10 µM", "setting": "Cycloogenase COX-1", "value": 8, "unit": "%"},
      {"measurement": "inhibition at 10 µM", "setting": "Phosphodiesterase PDE3A", "value": -6, "unit": "%"},
      {"measurement": "inhibition at 10 µM", "setting": "Cannabinoid CB2", "value": -4, "unit": "%"},
      {"measurement": "inhibition at 10 µM", "setting": "Endothelin ETA", "value": -15, "unit": "%"},
      {"measurement": "inhibition at 10 µM", "setting": "Histamine H2", "value": -7, "unit": "%"},
      {"measurement": "inhibition at 10 µM", "setting": "[4]", "value": -5, "unit": "%"},
      {"measurement": "inhibition at 10 µM", "setting": "Opiate Mu (OP3, MOP)", "value": 17, "unit": "%"},
      {"measurement": "inhibition at 10 µM", "setting": "[5]", "value": 3, "unit": "%"},
      {"measurement": "mouse cfu", "setting": "[6]; Day 5, MBX-4132 10 MPK, 10 mg/kg", "value": "2.00E+01 CFU/mL (14×) and 4.20E+02 CFU/mL and 2.61E+03 CFU/mL and 2.38E+03 CFU/mL and 3.50E+05 CFU/mL and 1.00E+06 CFU/mL and 2.60E+02 CFU/mL"},
      {"measurement": "mouse cfu", "setting": "[6]; Day 6, MBX-4132 10 MPK, 10 mg/kg", "value": "2.00E+01 CFU/mL (16×) and 1.46E+03 CFU/mL and 2.08E+04 CFU/mL and 3.12E+05 CFU/mL and 7.20E+02 CFU/mL"},
      {"measurement": "mouse cfu", "setting": "[6]; Day 7, MBX-4132 10 MPK, 10 mg/kg", "value": "2.00E+01 CFU/mL (18×) and 1.01E+04 CFU/mL and 1.16E+04 CFU/mL"},
      {"measurement": "mouse cfu", "setting": "[6]; Day 8, MBX-4132 10 MPK, 10 mg/kg", "value": "2.00E+01 CFU/mL (18×) and 2.20E+02 CFU/mL and 7.00E+02 CFU/mL"},
      {"measurement": "mouse cfu", "setting": "[6]; Day -1, MBX-4132 10 MPK, 10 mg/kg", "value": "2.16E+06 CFU/mL and 4.97E+06 CFU/mL and 1.86E+05 CFU/mL and 1.04E+06 CFU/mL and 6.26E+06 CFU/mL and 2.02E+05 CFU/mL and 3.50E+04 CFU/mL and 5.46E+03 CFU/mL and 1.66E+05 CFU/mL and 6.46E+05 CFU/mL and 2.23E+05 CFU/mL and 2.90E+05 CFU/mL and 2.17E+05 CFU/mL and 6.58E+03 CFU/mL and 2.34E+06 CFU/mL and 3.20E+02 CFU/mL and 3.63E+06 CFU/mL and 4.88E+05 CFU/mL and 3.45E+06 CFU/mL and 2.43E+06 CFU/mL"},
      {"measurement": "mice cleared per day: cleared flag", "setting": "[6]; MBX-4132 10 MPK, individual mice 1-20, 1 = cleared on the day, 0 = not cleared, 10 mg/kg", "value": "1 and 0"},
      {"measurement": "Day (mice cleared per day: day on which the mouse was cleared)", "setting": "[6]; MBX-4132 10 MPK, individual mice 1-20, Day 8 with flag 0 = not cleared, 10 mg/kg", "value": "3 and 8 and 6 and 5 and 1 and 4 and 2"},
      {"measurement": "mice completely cleared of infection", "setting": "[6]; single oral dose 10 mg/kg, by 6 days, N. gonorrhoeae H041", "value": 80, "unit": "%"}
    ]}
  ]
}
